Several values for one entry are separate records, joined by “and”; a condition that tells them apart may be missing. Equal entries are not always repeated.
Legend:
[1] = toxicological, teratologic and clinical trials
[2] = second part of Table 2
[3] = tested on: patients suffering from vitiligo; assay: Clinical trial in humans, repigmentation in vitiligo
[4] = product to be used in the trial
[5] = topical, 3 times a week, 6 months, Melagenina Plus-resistant patients

For `O=C(O)[C@@H]1CCCN1` [L-Proline], the adverse reactions [1] was “No severe adverse reactions were reported”, the “L-Proline concentration, Fresh” value ([2]; hydroalcoholic solution just prepared) was 1.01 mg/mL and the “L-Proline concentration, 12 months” value ([2]; hydroalcoholic solution, 12 months) was 1.00 mg/mL. The “L-Proline concentration, 24 months” value ([2]; hydroalcoholic solution, 24 months) was 1.00 mg/mL, the “Spectrum determination, Fresh” value (200-205 nm, hydroalcoholic solution just prepared) was 0.051 UA and the “Spectrum determination, 12 months” value (200-205 nm, hydroalcoholic solution, 12 months) was 0.072UA. For the same molecule, the “Spectrum determination, 24 months” value (200-205 nm, hydroalcoholic solution, 24 months) was 0.071 UA, the “remains stable after preparing the solution” value (hydroalcoholic solution, spectrophotometric determinations and aminoacids analysis) was 2 years and the “reversibility of repigmentant effect once application is discontinued” value ([3]; human, in vivo) was “irreversible”. For the same molecule, the “Effect Evaluation” value ([3]; per patient No. 1-21, 1.5 mg/mL hydroalcoholic solution at 80%, topical, 3 times a week, 6 months) was “Noteworthy (10×) and Poor (2×)”, the “increase of lesions or local or systemic side effect” value ([3]; topical, 3 times a week, 6 months) was “no increase of lesions or local or systemic side effect were reported in any of the cases” and the “patients that did not show response to the treatment” value [3, 5] was 2 patients of 22. For the same molecule, the “patients that showed noteworthy to moderate response” value [3, 5] was 18 patients and the “dermal and ophthalmic irritability” value [4] was “innocuousness”.

From patent publication US20080207733A1, “Composition for the Treatment of Vitiligo” (priority 2003, published 2008)
